Source: US9028845B2, “Chimeric immunomodulatory compounds and methods of using the same-IV” (Dynavax Technologies Corporation, priority 2001, dated 2015)
Strand notation (5' to 3'): a small letter for the sugar, then the base; units joined by * are phosphorothioate-linked, units joined directly phosphodiester-linked; [ ] holds rarer units or linkages, { } end groups; capitals alone tell only the bases. d = 2'-deoxy (DNA)

Tested on: human PBMCs
Assay: Human PBMC cytokine response assay (IFN-γ and IFN-α in cell-free medium by ELISA), with or without cPLGA
Assay type: cell-based
[1] = Donor 5, 20 μg/ml (mixtures: 20 μg/ml total), 24 h
[2] = Donor 6, 20 μg/ml (mixtures: 20 μg/ml total), 24 h

5′-TGACTGTGAACCTTAGAGATGA-3′ (SEQ ID NO: 3) (dT*dG*dA*dC*dT*dG*dT*dG*dA*dA*dC*dC*dT*dT*dA*dG*dA*dG*dA*dT*dG*dA) [Compound P-7, negative control, reference compound]
IFN-α (pg/ml) Donor 1 (Donor 1, 20 μg/ml, 24 h): 0 pg/mL
IFN-γ (pg/ml) Donor 1 (Donor 1, 20 μg/ml, 24 h): 410 pg/mL
IFN-α (pg/ml) Donor 2 (Donor 2, 20 μg/ml, 24 h): 0 pg/mL
IFN-γ (pg/ml) Donor 2 (Donor 2, 20 μg/ml, 24 h): 51 pg/mL
IFN-α (pg/ml) Donor 3 (Donor 3, 20 μg/ml, 24 h): 0 pg/mL
IFN-γ (pg/ml) Donor 3 (Donor 3, 20 μg/ml, 24 h): 3 pg/mL
IFN-α (pg/ml) Donor 4 (Donor 4, 20 μg/ml, 24 h): 31 pg/mL
IFN-γ (pg/ml) Donor 4 (Donor 4, 20 μg/ml, 24 h): 8 pg/mL
IFN-α (pg/ml) Donor 5 [1]: 20 pg/mL
IFN-γ (pg/ml) Donor 5 [1]: 7 pg/mL
IFN-α (pg/ml) Donor 6 [2]: 94 pg/mL
IFN-γ (pg/ml) Donor 6 [2]: 66 pg/mL
IFN-α (pg/ml) Donor 7 (Donor 7, 20 μg/ml, 24 h): 0 pg/mL
IFN-γ (pg/ml) Donor 7 (Donor 7, 20 μg/ml, 24 h): 2 pg/mL
IFN-α (pg/ml) Donor 8 (Donor 8, 20 μg/ml, 24 h): 0 pg/mL
IFN-γ (pg/ml) Donor 8 (Donor 8, 20 μg/ml, 24 h): 2 pg/mL
IFN-α Donor 9 (Donor 9, 20 μg/ml, 24 h): 0
IFN-γ Donor 9 (Donor 9, 20 μg/ml, 24 h): 5
IFN-α Donor 10 (Donor 10, 20 μg/ml, 24 h): 3
IFN-γ Donor 10 (Donor 10, 20 μg/ml, 24 h): 2
IFN-α Donor 11 (Donor 11, 20 μg/ml, 24 h): 1
IFN-γ Donor 11 (Donor 11, 20 μg/ml, 24 h): 3
IFN-α Donor 12 (Donor 12, 20 μg/ml, 24 h): 5
IFN-γ Donor 12 (Donor 12, 20 μg/ml, 24 h): 2
IFN-α (Example 58, 0.8 ug/ml, donor 1): 52 pg/mL
IFN-α (Example 58, 0.8 ug/ml, donor 2): 52 pg/mL
IFN-α (Example 58, 0.8 ug/ml, donor 3): 52 pg/mL
IFN-α (Example 58, 0.8 ug/ml, donor 4): 52 pg/mL
IFN-α mean (Example 58, 0.8 ug/ml, mean of four individuals): 52 pg/mL
IFN-α (Example 58, 4 ug/ml, donor 1): 52 pg/mL
IFN-α (Example 58, 4 ug/ml, donor 2): 52 pg/mL
IFN-α (Example 58, 4 ug/ml, donor 3): 52 pg/mL
IFN-α (Example 58, 4 ug/ml, donor 4): 52 pg/mL
IFN-α mean (Example 58, 4 ug/ml, mean of four individuals): 52 pg/mL
IFN-α (Example 58, 20 ug/ml, donor 1): 52 pg/mL
IFN-α (Example 58, 20 ug/ml, donor 2): 52 pg/mL
IFN-α (Example 58, 20 ug/ml, donor 3): 52 pg/mL
IFN-α (Example 58, 20 ug/ml, donor 4): 52 pg/mL
IFN-α mean (Example 58, 20 ug/ml, mean of four individuals): 52 pg/mL
IFN-α (Example 59, 0.8 ug/ml, donor 48): 102 pg/mL
IFN-α (Example 59, 0.8 ug/ml, donor 177): 102 pg/mL
IFN-α (Example 59, 0.8 ug/ml, donor 272): 102 pg/mL
IFN-α (Example 59, 0.8 ug/ml, donor 273): 102 pg/mL
IFN-α mean (Example 59, 0.8 ug/ml, mean of four donors): 102 pg/mL
IFN-α (Example 59, 4 ug/ml, donor 48): 102 pg/mL
IFN-α (Example 59, 4 ug/ml, donor 177): 102 pg/mL
IFN-α (Example 59, 4 ug/ml, donor 272): 102 pg/mL
IFN-α (Example 59, 4 ug/ml, donor 273): 102 pg/mL
IFN-α mean (Example 59, 4 ug/ml, mean of four donors): 102 pg/mL
IFN-α (Example 59, 20 ug/ml, donor 48): 102 pg/mL
IFN-α (Example 59, 20 ug/ml, donor 177): 102 pg/mL
IFN-α (Example 59, 20 ug/ml, donor 272): 102 pg/mL
IFN-α (Example 59, 20 ug/ml, donor 273): 102 pg/mL
IFN-α mean (Example 59, 20 ug/ml, mean of four donors): 102 pg/mL
IFN-α (Table 9, donor 28089): 0 pg/mL
IFN-γ (Table 9, donor 28089): 0 pg/mL
IFN-α (Table 9, donor 28090): 27 pg/mL
IFN-γ (Table 9, donor 28090): 4 pg/mL
IFN-α (Table 9, donor 28098): 19 pg/mL
IFN-γ (Table 9, donor 28098): 0 pg/mL
IFN-α (Table 9, donor 28099): 37 pg/mL
IFN-γ (Table 9, donor 28099): 2 pg/mL
IFN-α mean (Table 9, mean of donors): 21 pg/mL
IFN-γ mean (Table 9, mean of donors): 1 pg/mL
IFN-α (Table 10, donor 28042): 0 pg/mL
IFN-γ (Table 10, donor 28042): 66 pg/mL
IFN-α (Table 10, donor 28043): 11 pg/mL
IFN-γ (Table 10, donor 28043): 76 pg/mL
IFN-α (Table 10, donor 28044): 22 pg/mL
IFN-γ (Table 10, donor 28044): 26 pg/mL
IFN-α (Table 10, donor 28045): 20 pg/mL
IFN-γ (Table 10, donor 28045): 13 pg/mL
IFN-α mean (Table 10, mean of donors): 13 pg/mL
IFN-γ mean (Table 10, mean of donors): 45 pg/mL
IFN-α (Table 11, donor 28042): 0 pg/mL
IFN-γ (Table 11, donor 28042): 34 pg/mL
IFN-α (Table 11, donor 28043): 0 pg/mL
IFN-γ (Table 11, donor 28043): 19 pg/mL
IFN-α (Table 11, donor 28044): 4 pg/mL
IFN-γ (Table 11, donor 28044): 48 pg/mL
IFN-α (Table 11, donor 28045): 54 pg/mL
IFN-γ (Table 11, donor 28045): 35 pg/mL
IFN-α mean (Table 11, mean of donors): 15 pg/mL
IFN-γ mean (Table 11, mean of donors): 34 pg/mL
